# Experimental data reported in patent US4173650A, “Cis-2-benzoyl-3-hydroxy-2-alkenonitriles as anti-inflammatory agents” (American Cyanamid Company, priority 1978, dated 1979).
# Like-named read-outs stand apart in the source and are kept apart here.
# What was measured:
# [1] = test system: Adjuvant Induced Arthritis; assay: Adjuvant-induced arthritis in the rat; format: in vivo, rat (Royal Hart, Wistar strain); conditions: for inhibition in vivo at 50 mg/kg: oral 50 mg./kg.; for inhibition in vivo at 25 mg/kg: oral 25 mg./kg.
# Method: Groups of three Royal Hart, Wistar strain rats weighing 200±10 g. each were injected intradermally in the right hind paw with Freund's adjuvant (dried human tubercle bacilli in a mineral oil vehicle) at a dose of 2 mg./kg. of body weight. The test compounds were administered orally in a 1.5% starch vehicle at various doses once daily on days 0 to 13 post challenge. Control rats were treated in a similar manner, but given only starch vehicle. On the 14th and 21st day post challenge the diameter of the injected paw was measured by micrometer caliper. The volume of inflamed paws were estimated from these measurements and the effects of each compound are expressed as percent inhibition of swelling as compared to controls. Table II records the results of these tests conducted with representative compounds of this invention and known anti-inflammatory agents. The active compounds of this invention suppress the progression of the arthritis and associated joint deterioration.
# Adjuvant-induced experimental polyarthritis is a specific systemic disease of the rat which shares interesting similarities with rheumatoid arthritis. Specifically the histology of the two diseases bears a remarkable resemblence as shown by C. M. Pearson et al., Am. J. Path. 42, 73 (1963). E. M. Glenn, Am. J. Vet. Res. 27, (116), 339 (1966) has classified adjuvant-induced polyarthritis as a crippling and permanent deformity resulting from diffuse connective tissue involvement areound certain susceptible joints in the rat. Zahiri et al, Can. Med. Ass. J., 101, 269 (1969) have shown that the fusiform swelling of the distal joints is associated with edema, congestion and synovitis including pannus formation, all of which precede the ultimate destruction of bone and cartilage. Furthermore, Zahiri et al., indicate that the cartilage destruction in the joint is due to an invasive pannus which originates in the marginal synovium and extends across the articular surface to erode it. […] The most pointed reference showing the relationship between arthritis and joint deterioration is an X-Ray analysis of adjuvant arthritis in the rat by Blackham et al., Agents and Actions 7, 145 (1977). In a similar manner, inhibition of the progress of arthritis in paws of rats treated with the compounds of this invention also lessens associated joint deterioration.
# [2] = test system: Migration Inhibitory Factor; assay: Migration inhibitory factor in the guinea pig (capillary tube macrophage migration assay, direct MIF assay); format: cell-based, guinea pig (male Hartley); conditions: number of tests wherein the percent reversal of inhibition =15%
# Text: Rheumatoid arthritis is a chronic inflammatory disease that is characterized by the migration of lymphocytes, macrophages and polymorphonuclear leukocytes to the sites of inflammation. The migration of lymphocytes and macrophages and their multiplication in situ is one reason for the very large increase in size of the normally thin synovial membrane, the membrane that encloses the joint space. The synovial membrane that has been transformed in this manner, slowly grows over the aricular surfaces and causes the destruction of the articular cartilage and other connective tissue structures of the joint. One of the mechanisms for the destruction of articular cartilage by the synovium is believed to be through the release of various hydrolytic enzymes by the resident macrophages which have been immobilized and activated by migration inhibitory factor (MIF). Macrophages stimulated by MIF are termed "activated macrophages" and undergo the following changes: (a) increased glucose oxidation, (b) increased ruffling of plasma membrane and increased spreading of cells, (c) synthesis and secretion of neutral proteases, (d) release of preformed lysosomal enzymes, (e) decreased migration from a capillary tube. […] Drugs that can therefore block the release of MIF by lymphocytes or the activation of macrophages by MIF should be clinically effective in retarding the destructive joint damage which occurs in rheumatoid arthritis. Drugs can be tested as MIF inhibitors by using the capillary tube migration assay as follows.
# Male Hartley guinea pigs, weighing between 300 and 600 grams, are injected intraperitoneally with 25 ml Marcal 52 Oil® (Humble Oil). Three to four days later, the guinea pigs are sacrificed by decapitation, the peritoneum opened, and the exudate aspirated into a separatory funnel after the addition of 50 ml of cold Hank's solution. This is repeated two times. The oil phase is discarded and the cell supsension is spun down at 1200 r.p.m. for ten minutes. The cells are resuspended in Hank's solution and spun down at 900 r.p.m. for five minutes. This is repeated two times. Viability of the cells is then determined using trypan blue. In all experiments, viability is greater than 90%. The cell concentration is then adjusted to give a 10% packed cell volume by the addition of the appropriate amount of MEM® (Gibco 109)+15% guinea pig serum. […] To determine the area of cell migration out of the capillary tube onto the chamber surface, the chambers are projected onto a microscope screen, the area traced onto paper, and then measured using a planimeter. […]
# [3] = test system: Carrageenin-Induced Edema; assay: Carrageenin-induced edema in the rat; format: in vivo, rat (Royal Hart, Wistar strain); conditions: by gavage, 5 hours after drug (4 hours after carrageenin challenge); dose not given
# Method: In determining the acute anti-inflammatory activity of the cis-2-benzoyl-3-hydroxy-2-alkenonitriles of the present invention, Royal Hart, Wistar strain rats, ranging in weight from 80 to 90 grams were used. The rats were fasted overnight prior to dosing but had free access to water. The test compounds were administered in aqueous suspension, by gavage, in a volume of 1.7 ml. per 50 grams of rat [corresponds to hydration volume used by Winter, et al., Proc. Soc. […] The phlogistic agent used was carrageenin prepared as a sterile 1% suspension in 0.9% aqueous sodium chloride for routine testing. A volume of 0.05 ml. was injected through a 26 gauge needle into the plantar tissue of the right hind paw. Measurements were made 5 hours after drug administration (4 hours after carrageenin challenge). Volumes of both the normal and carrageenin inflammed feet were determined. The difference between the two measurements is considered to be the increased edema due to the carrageenin administration. Results are expressed as a C/T efficacy ratio (edema of control animals/edema of treated animals).
# arthritic paw swelling = conditions: cited from earlier work
# [4] = 336 h, once daily days 0 to 13, read-out: % Inhibition of Swelling, Day 14
# [5] = 504 h, once daily days 0 to 13, read-out: % Inhibition of Swelling, Day 21
structure (smiles),measurement,setting,value
C/C(O)=C(\C#N)C(=O)c1cccc(Cl)c1C [Cis-2-(3-chloro-o-toluoyl)-3-hydroxycrotononitrile],inhibition in vivo at 50 mg/kg,[1]; [4],61%
same,inhibition in vivo at 50 mg/kg,[1]; [5],17%
same,#Actives/Total Tests,[2]; 5×10^-5 M,3/5
C/C(O)=C(\C#N)C(=O)c1cccc(F)c1 [Cis-2-(m-fluorobenzoyl)-3-hydroxycrotononitrile],inhibition in vivo at 50 mg/kg,[1]; [4],48%
same,inhibition in vivo at 50 mg/kg,[1]; [5],37%
same,C/T Ratio (edema of control animals/edema of treated animals),[3],1.61
COc1ccc2c(c1)c(CC(=O)O)c(C)n2C(=O)c1ccc(Cl)cc1 [Indomethacin],effect on joint and bone deterioration,"arthritic paw swelling; S. Wong et al. 1973, G. R. Bobalick et al. 1974",prevent joint and bone deterioration
same,effect on arthritic paw swelling,arthritic paw swelling; literature,inhibit arthritic paw swelling
"C/C(O)=C(\C#N)C(=O)c1ccc(C)cc1 [Cis-3-hydroxy-2-p-toluoylcrotononitrile, Cis-3-hydroxy-2-(p-toluoyl)crotonitrile]",C/T Ratio (edema of control animals/edema of treated animals),[3],1.41
C/C(O)=C(\C#N)C(=O)c1ccc(Br)cc1 [Cis-2-(p-bromobenzoyl)-3-hydroxycrotononitrile],#Actives/Total Tests,[2]; 10 μg./ml.,2/3
C/C(O)=C(\C#N)C(=O)c1ccccc1F [Cis-2-(o-fluorobenzoyl)-3-hydroxycrotononitrile],C/T Ratio (edema of control animals/edema of treated animals),[3],2.18
"C/C(O)=C(\C#N)C(=O)c1ccc(C(F)(F)F)cc1 [Cis-3-hydroxy-2-(α,α,α-trifluoro-p-toluoyl)crontononitril]",inhibition in vivo at 25 mg/kg,[1]; [4],68%
same,inhibition in vivo at 25 mg/kg,[1]; [5],5%
same,C/T Ratio (edema of control animals/edema of treated animals),[3],1.97
"CC(=O)Oc1ccccc1C(=O)O [Aspirin, reference compound]",C/T Ratio (edema of control animals/edema of treated animals),[3],2.86
C/C(O)=C(\C#N)C(=O)c1ccc(Cl)cc1 [Cis-2-(p-chlorobenzoyl)-3-hydroxycrotonitrile],inhibition in vivo at 25 mg/kg,[1]; [4],58%
same,inhibition in vivo at 25 mg/kg,[1]; [5],15%
C/C(O)=C(\C#N)C(=O)c1ccccc1Cl [Cis-2-(o-chlorobenzoyl)-3-hydroxycrotononitrile],inhibition in vivo at 50 mg/kg,[1]; [4],39%
same,inhibition in vivo at 50 mg/kg,[1]; [5],29%
COc1ccccc1C(=O)/C(C#N)=C(/C)O [Cis-3-hydroxy-2-(o-anisoyl)crotononitrile],C/T Ratio (edema of control animals/edema of treated animals),[3],1.30
same,#Actives/Total Tests,[2]; 5×10^-5 M,4/5
COc1ccc(C(=O)/C(C#N)=C(/C)O)cc1 [Cis-3-hydroxy-2-(p-methoxybenzoyl)crotononitrile],C/T Ratio (edema of control animals/edema of treated animals),[3],1.59
C/C(O)=C(\C#N)C(=O)c1ccc(F)cc1 [Cis-2-(p-fluorobenzoyl)-3-hydroxycrotononitrile],inhibition in vivo at 25 mg/kg,[1]; [4],65%
same,inhibition in vivo at 25 mg/kg,[1]; [5],30%
same,#Actives/Total Tests,[2]; 5×10^-5 M,4/4
